{"source": "patent US9499614B2", "about": "“Methods for modulating protein glycosylation profiles of recombinant protein therapeutics using monosaccharides and oligosaccharides” (AbbVie, Inc., priority 2013, dated 2016)", "key": {"Cell Line 1 [1]": {"system": "Cell Line 1", "assay": "N-glycan oligosaccharide profiling, Cell Line 1 in 3 L laboratory-scale bioreactors", "assay_type": "cell-based, Chinese Hamster", "details": "50 mM supplement", "description": "Purified antibodies subjected to additional analytical characterization were purified using MabSelect™ Protein A (GE Healthcare, Piscataway, N.J.) using a low pH, step elution gradient, followed by buffer exchange using Corning Lifesciences (Tewksbury, Mass.) Spin Concentrator X UF columns according to the manufacturers' recommended procedures.\nApproximately 200 μg of Protein A purified samples from Cell Lines 1 and 2 were treated with N-glycanase at 37° C. overnight to remove the N-glycans from the protein. The protein was precipitated and the supernatant was taken for subsequent chemical derivatization of the reducing end of the released glycans with 2-aminobenzamide (2-AB) dye. Following the derivatization step, the excess label was removed using clean up cartridges and the samples were analyzed using normal phase HPLC with fluorescent detection. Mobile phase A was 100% acetonitrile and mobile phase B was 50 mM ammonium formate pH 4.4. The glycans were eluted from a polyamide column (Prozyme, Hayward, Calif.) using a shallow gradient. The labeled glycans were detected using a fluorescence detector with an excitation wavelength of 330 nm and an emission wavelength of 420 nm.\n(§1) 3 L scale-down model bioreactors were utilized to verify the impact of select sugars on the resulting protein glycosylation profiles. The concentration of the sucrose and tagatose was chosen to minimize any potential adverse impact on cell growth and productivity, but still facilitate a measurable modulation of the glycosylation profile. Cell culture process performance indicators were monitored and measured throughout the respective cultures. Viable cell density, cell viability, lactate, pCO2, osmolality, harvest titer, and harvest N-glycan oligosaccharide data were measured and reported.\n3 L scale laboratory bioreactors were utilized to verify the impact of sucrose, tagatose, or fructose on protein glycosylation profiles. Concentrations of the sugars were chosen to minimize any potential adverse impacts on cell growth and productivity, but still facilitate a measurable impact on the glycoform profile. Cell culture process performance indicators were monitored and measured throughout the study. Viable cell density, cell viability, lactate, pCO2, osmolality, harvest titer, and harvest N-glycan oligosaccharide data was measured and reported."}, "Cell Line 1 [2]": {"system": "Cell Line 1", "assay": "3 L laboratory-scale bioreactor culture of Cell Line 1, cell culture performance", "assay_type": "cell-based, Chinese Hamster", "description": "Two recombinant Chinese Hamster Ovary (CHO) cell lines expressing two different humanized monoclonal antibodies (Antibody 1, Antibody 2) were evaluated in two different culture vessels (shaker flasks and laboratory scale bioreactors). Both cell lines were of CHO DUX-B11 origin based on a dhfr (dihydrofolate reductase) expression system. Both cell lines were cultured in the same chemically defined basal media (CDBM), with Cell Line 1 also utilizing a chemically-defined feed media (CDFM). Each of the respective media were supplemented with selected monosaccharides and oligosaccharides to evaluate their potential impact on the resulting N-glycan oligosaccharide profile. In preparing the cultures, the cell lines were serially expanded through separate seed train inoculums to generate enough cells for inoculation.\n(§2) Viable cell density (VCD) and cell viability values were measured through trypan blue exclusion via Cedex automated cell counters (Roche Applied Science, Indianapolis, Ind.), glucose and lactate values were measured with a ABL-805 (Radiometer Medical, Denmark) blood gas analyzer. Offline pH, dissolved oxygen (DO), and pCO2 measurements were performed with a ABL-805 (Radiometer Medical, Denmark) blood gas analyzer. Osmolality was measured on a Multi-Osmette 2430 osmometer (Precision Systems, Natick, Mass.).\nAntibody titers were measured from crude cell culture harvests on a Poros A™ (Life Technologies, Carlsbad, Calif.) affinity column using an Agilent (Santa Clara, Calif.) 1200 Series HPLC, or equivalent, operating with a low pH, step elution gradient with detection at 280 nm. Absolute concentrations were assigned with respect to reference standard calibration curves.\nas §1\nTwo recombinant Chinese Hamster Ovary (CHO) cell lines expressing two different recombinant glycoproteins were evaluated in two different cultures vessels (shaker flasks and 3 L laboratory scale bioreactors). Cell Line 1 expressed Antibody 1, Cell Line 2 expressed Dual Variable Domain Immunoglobulin 1 (DVD 1) and Cell Line 3 expressed Antibody 2. Antibodies 1 and 2 are IgG1 proteins, and DVD 1 is an immunoglobulin with two variable domains as documented previously (Wu C. et al., (2007) Nat. Biotechnol 25(11):1290-1297). All cell lines were of CHO DUX-B11 origin based on a dhfr (dihydrofolate reductase) expression system. All cell lines were cultured in the same chemically defined basal media. Cell lines 1 and 2 were fed with the same chemically-defined feed media, but Cell Line 1 was fed media that was formulated at a 50% higher concentration. Each of the respective media were supplemented with either sucrose or tagatose to evaluate their potential impact on the resulting N-glycan oligosaccharide profile. All sugars were purchased from Sigma-Aldrich (St. Louis, Mo.). In preparation of the cultures, the cell lines were serially expanded through separate seed train inoculums to generate enough cells for inoculation.\nas §2, with “performed with an ABL-805 (Radiometer” for “performed with a ABL-805 (Radiometer”, “gas analyzer. […]” for “gas analyzer. Osmolality was measured on a Multi-Osmette 2430 osmometer (Precision Systems, Natick, Mass.).”"}}}
{"smiles": "O=C(CO)[C@@H](O)[C@H](O)[C@H](O)CO", "note": "[fructose, reference compound]", "values": [{"measurement": "changes in protein glycosylation compared to the control", "setting": "Cell Line 1 [1]", "value": "did not facilitate any significant changes in protein glycosylation"}, {"measurement": "Osmolality", "setting": "Cell Line 1 [2]; 50 mM supplement vs control", "value": "only slightly higher"}, {"measurement": "cell viability", "setting": "Cell Line 1 [2]; 50 mM supplement vs control", "value": "no impact"}, {"measurement": "viable cell density", "setting": "Cell Line 1 [2]; 50 mM supplement vs control", "value": "no impact"}, {"measurement": "final harvest titer ratio", "setting": "Cell Line 1 [2]; 50 mM supplement, relative to unsupplemented control", "value": 0.81}]}
